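A five-concentration, 48-hour dose response in 96-well plates underlies each endpoint, interpolated linearly between surrounding concentrations. TGI marks complete inhibition of growth.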
Experiments:
Test in all cases: growth of human tumour cells (NCI), 48 h
T-47D breast = tested on: T-47D breast
U251 CNS = tested on: U251 CNS
MALME-3M melanoma = tested on: MALME-3M melanoma
MDA-MB-435 = tested on: MDA-MB-435
SNB-19 CNS = tested on: SNB-19 CNS
NCI/ADR-RES ovarian = tested on: NCI/ADR-RES ovarian
DU-145 prostate = tested on: DU-145 prostate
HOP-62 NSCLC = tested on: HOP-62 NSCLC
A498 renal = tested on: A498 renal
NCI-H522 lung = tested on: NCI-H522 lung
SW-620 colon = tested on: SW-620 colon
SR leukemia = tested on: SR leukemia
HL-60(TB) leukemia = tested on: HL-60(TB) leukemia
SN12C renal = tested on: SN12C renal
UACC-257 melanoma = tested on: UACC-257 melanoma
BT-549 breast = tested on: BT-549 breast
NCI-H226 lung = tested on: NCI-H226 lung
HOP-92 NSCLC = tested on: HOP-92 NSCLC
EKVX NSCLC = tested on: EKVX NSCLC
IGROV1 ovarian = tested on: IGROV1 ovarian
MDA-N = tested on: MDA-N
K-562 leukemia = tested on: K-562 leukemia
HCC-2998 colon = tested on: HCC-2998 colon
HCT-15 colon = tested on: HCT-15 colon
OVCAR-4 ovarian = tested on: OVCAR-4 ovarian
CAKI-1 renal = tested on: CAKI-1 renal
SF-268 CNS = tested on: SF-268 CNS
MCF7 breast = tested on: MCF7 breast
HS 578T breast = tested on: HS 578T breast
A549 NSCLC = tested on: A549 NSCLC
SK-MEL-28 melanoma = tested on: SK-MEL-28 melanoma
ACHN renal = tested on: ACHN renal
SNB-75 CNS = tested on: SNB-75 CNS
RPMI-8226 leukemia = tested on: RPMI-8226 leukemia
SF-539 CNS = tested on: SF-539 CNS
OVCAR-8 ovarian = tested on: OVCAR-8 ovarian
SK-MEL-5 melanoma = tested on: SK-MEL-5 melanoma
UACC-62 melanoma = tested on: UACC-62 melanoma
786-0 renal = tested on: 786-0 renal
LOX IMVI melanoma = tested on: LOX IMVI melanoma
M14 melanoma = tested on: M14 melanoma
KM12 colon = tested on: KM12 colon
MOLT-4 leukemia = tested on: MOLT-4 leukemia
MDA-MB-231 breast = tested on: MDA-MB-231 breast
HT29 colon = tested on: HT29 colon
CCRF-CEM leukemia = tested on: CCRF-CEM leukemia
COLO 205 colon = tested on: COLO 205 colon
SK-OV-3 ovarian = tested on: SK-OV-3 ovarian
NCI-H460 lung = tested on: NCI-H460 lung
RXF 393 renal = tested on: RXF 393 renal
SF-295 CNS = tested on: SF-295 CNS
UO-31 renal = tested on: UO-31 renal
PC-3 prostate = tested on: PC-3 prostate
SK-MEL-2 melanoma = tested on: SK-MEL-2 melanoma
OVCAR-3 ovarian = tested on: OVCAR-3 ovarian
OVCAR-5 ovarian = tested on: OVCAR-5 ovarian
NCI-H23 lung = tested on: NCI-H23 lung
TK-10 renal = tested on: TK-10 renal
HCT-116 colon = tested on: HCT-116 colon
KM20L2 colon = tested on: KM20L2 colon
M19-MEL melanoma = tested on: M19-MEL melanoma
SNB-78 CNS = tested on: SNB-78 CNS
DMS 273 small cell lung = tested on: DMS 273 small cell lung
LXFL 529 NSCLC = tested on: LXFL 529 NSCLC
DMS 114 small cell lung = tested on: DMS 114 small cell lung

Nc1nc(SCc2ccccc2)c2ncn(Cc3ccccc3)c2n1
TGI (T-47D breast): > 100 µM | TGI (U251 CNS): > 100 µM | TGI (MALME-3M melanoma): > 89.1 µM | TGI (MDA-MB-435): > 100 µM | TGI (SNB-19 CNS): > 100 µM | TGI (NCI/ADR-RES ovarian): > 100 µM | TGI (DU-145 prostate): > 100 µM | TGI (HOP-62 NSCLC): > 100 µM | TGI (A498 renal): > 65.9 µM | TGI (NCI-H522 lung): > 100 µM | TGI (SW-620 colon): > 100 µM | TGI (SR leukemia): > 100 µM | TGI (HL-60(TB) leukemia): > 100 µM | TGI (SN12C renal): > 100 µM | TGI (UACC-257 melanoma): > 100 µM | TGI (BT-549 breast): > 100 µM | TGI (NCI-H226 lung): > 100 µM | TGI (HOP-92 NSCLC): > 100 µM | TGI (EKVX NSCLC): > 100 µM | TGI (IGROV1 ovarian): > 100 µM | TGI (MDA-N): > 100 µM | TGI (K-562 leukemia): > 100 µM | TGI (HCC-2998 colon): > 100 µM | TGI (HCT-15 colon): > 100 µM | TGI (OVCAR-4 ovarian): > 100 µM | TGI (CAKI-1 renal): > 86.5 µM | TGI (SF-268 CNS): > 100 µM | TGI (MCF7 breast): > 100 µM | TGI (HS 578T breast): > 100 µM | TGI (A549 NSCLC): > 100 µM | TGI (SK-MEL-28 melanoma): > 100 µM | TGI (ACHN renal): > 100 µM | TGI (SNB-75 CNS): > 100 µM | TGI (RPMI-8226 leukemia): > 100 µM | TGI (SF-539 CNS): > 100 µM | TGI (OVCAR-8 ovarian): > 100 µM | TGI (SK-MEL-5 melanoma): > 100 µM | TGI (UACC-62 melanoma): > 100 µM | TGI (786-0 renal): > 100 µM | TGI (LOX IMVI melanoma): > 100 µM | TGI (M14 melanoma): > 100 µM | TGI (KM12 colon): > 100 µM | TGI (MOLT-4 leukemia): > 100 µM | TGI (MDA-MB-231 breast): > 100 µM | TGI (HT29 colon): > 100 µM | TGI (CCRF-CEM leukemia): > 100 µM | TGI (COLO 205 colon): > 100 µM | TGI (SK-OV-3 ovarian): > 100 µM | TGI (NCI-H460 lung): > 100 µM | TGI (RXF 393 renal): > 100 µM | TGI (SF-295 CNS): > 100 µM | TGI (UO-31 renal): > 100 µM | TGI (PC-3 prostate): > 100 µM | TGI (SK-MEL-2 melanoma): > 100 µM | TGI (OVCAR-3 ovarian): > 100 µM | TGI (OVCAR-5 ovarian): > 100 µM | TGI (NCI-H23 lung): > 100 µM | TGI (TK-10 renal): > 100 µM | TGI (HCT-116 colon): > 100 µM

CCOC(=O)c1ccc(N2C(=O)/C(=C\OC)c3ccccc3C2=O)cc1
TGI (KM20L2 colon): > 100 µM | TGI (U251 CNS): > 100 µM | TGI (MALME-3M melanoma): > 100 µM | TGI (SNB-19 CNS): > 100 µM | TGI (NCI-H522 lung): > 100 µM | TGI (SW-620 colon): > 100 µM | TGI (SR leukemia): > 100 µM | TGI (SN12C renal): > 100 µM | TGI (M19-MEL melanoma): > 100 µM | TGI (UACC-257 melanoma): > 100 µM | TGI (SNB-78 CNS): > 100 µM | TGI (NCI-H226 lung): > 100 µM | TGI (EKVX NSCLC): > 100 µM | TGI (IGROV1 ovarian): > 100 µM | TGI (K-562 leukemia): > 100 µM | TGI (HCC-2998 colon): > 100 µM | TGI (HCT-15 colon): > 100 µM | TGI (DMS 273 small cell lung): > 100 µM | TGI (OVCAR-4 ovarian): > 100 µM | TGI (CAKI-1 renal): > 100 µM | TGI (SF-268 CNS): > 100 µM | TGI (A549 NSCLC): > 100 µM | TGI (SK-MEL-28 melanoma): > 100 µM | TGI (ACHN renal): > 100 µM | TGI (SNB-75 CNS): > 100 µM | TGI (RPMI-8226 leukemia): > 100 µM | TGI (SF-539 CNS): > 100 µM | TGI (OVCAR-8 ovarian): > 100 µM | TGI (SK-MEL-5 melanoma): > 100 µM | TGI (UACC-62 melanoma): > 100 µM | TGI (786-0 renal): > 100 µM | TGI (LXFL 529 NSCLC): 89.1 µM | TGI (KM12 colon): > 100 µM | TGI (MOLT-4 leukemia): 89.3 µM | TGI (DMS 114 small cell lung): > 100 µM | TGI (HT29 colon): > 100 µM | TGI (COLO 205 colon): > 100 µM | TGI (SK-OV-3 ovarian): 41.9 µM | TGI (RXF 393 renal): 61.3 µM | TGI (SF-295 CNS): > 100 µM | TGI (UO-31 renal): 62.8 µM | TGI (SK-MEL-2 melanoma): > 100 µM | TGI (OVCAR-3 ovarian): > 100 µM | TGI (OVCAR-5 ovarian): > 100 µM | TGI (NCI-H23 lung): > 100 µM | TGI (TK-10 renal): > 100 µM | TGI (HCT-116 colon): > 100 µM

Source: PubChem BioAssay (NCI)
